Consider four molecules from patent publication US20170216355A1, “Methods and Compositions for Enhancing T Cell Function and Survival” (Augusta University Research Institute, Inc., priority 2016, published 2017).

Broadly, the IC50 is the midpoint of a concentration-inhibition curve.

“Also recorded” adds a separate entry of the source.

For series [1], the system named is CD8 T cells from pMel-1 mice. Nature of the series: Phenotyping of gp100-activated CD8 T cells (CD62L/CD44 flow cytometry). The class given is cell-based, mouse. Conditions: for phenotype of CD8 T cells (TCM vs TEM) compared to non-treated cells: after 3 days of stimulation with 1 μM gp100 25-33 (7 days culture); for CD62L expression level: day 3, and day 7 after each stimulation with gp100. How it is done:
CD8 T cells from pMel-1 mice were activated in vitro as previously described^5. Briefly, homogenized pMel-1 splenocytes were stimulated with gp10025-33 peptide at a 1 μM concentration (day 0). Cells were cultured in RPMI 1640 (Lonza) supplemented with 10% FBS, penicillin (100 U/mL), streptomycin ([…]), 0.1% β-mercaptoethanol (Life Technologies, Invitrogen) and IL-2 (100 U/ml) (Peprotech) at 37° C. with 5% CO2. pMel-1 cells were cultured with or without the different PI3K inhibitors. The concentration of the inhibitors was maintained throughout the culture by changing the media every 48-72 hours.
On Days 7, 14 and 21, cells were re-stimulated with gp10025-33 peptide at a 1 μM concentration using feeder cells (irradiated WT splenocytes, 4000 Rads) at 1:1 ratio using the same culture conditions.
Cells were labeled with 5 μM Violet Cell Trace (VCT) proliferation dye (Life Technologies, Invitrogen) prior to their stimulation (day 0) following the manufacturers' instructions. The proliferation of CD8 T cells was assessed via VCT dye dilution (day 3) using an LSRII SORP with HTS Flow Cytometer (BD Biosciences). The data were analyzed using FlowJo 10 (Tree Star). The cultured cells were harvested on days 3, 7, 14 and 21 to assess their phenotype. Cells were stained with the following surface marker antibodies (BD Biosciences): APC-Cy7 labeled anti-CD8, FITC labeled anti-Vβ13, PE labeled anti-CD62L, APC labeled anti-CD44, PE-CF594 labeled anti-CD127, APC labeled anti-KLRG-1 in addition to the viability stain 7AAD. All the analyses were performed on viable (7AAD−), Vβ13+CD8+ T cells.
On the technique in general: Flow cytometry measures light scatter and fluorescence of single cells or particles in a stream.

The subject of series [2] is CD8 T cells from pMel-1 mice. Nature of the series: Proliferation assay (VCT dye dilution) and fold expansion of CD8 T cells. The class given is cell-based, mouse.
Experimental: CD8 T cells from pMel-1 mice were activated in vitro as previously described^5. […] The concentration of the inhibitors was maintained throughout the culture by changing the media every 48-72 hours. […] The data were analyzed using FlowJo 10 (Tree Star). […] Cells were stained with the following surface marker antibodies (BD Biosciences): APC-Cy7 labeled anti-CD8, FITC labeled anti-Vβ13, PE labeled anti-CD62L, APC labeled anti-CD44, PE-CF594 labeled anti-CD127, APC labeled anti-KLRG-1 in addition to the viability stain 7AAD. All the analyses were performed on viable (7AAD−), Vβ13+CD8+ T cells.
In series [3] the test system is CD8 T cells from pMel-1 mice. Nature of the series: Cytometric Bead Array of IL-2, TNF and IFN-γ secretion. The class given is cell-based, mouse.
In the next series the target is p110γ (Homo sapiens, UniProt P48736). Conditions: cited from earlier work.
A further series has as its target p110δ (Homo sapiens, UniProt O00329). Particulars: cited from earlier work.
In a further series the target is p110α (Homo sapiens, UniProt P42336). Conditions: cited from earlier work.
Chain of p110α (P42336 whole entry, species assumed): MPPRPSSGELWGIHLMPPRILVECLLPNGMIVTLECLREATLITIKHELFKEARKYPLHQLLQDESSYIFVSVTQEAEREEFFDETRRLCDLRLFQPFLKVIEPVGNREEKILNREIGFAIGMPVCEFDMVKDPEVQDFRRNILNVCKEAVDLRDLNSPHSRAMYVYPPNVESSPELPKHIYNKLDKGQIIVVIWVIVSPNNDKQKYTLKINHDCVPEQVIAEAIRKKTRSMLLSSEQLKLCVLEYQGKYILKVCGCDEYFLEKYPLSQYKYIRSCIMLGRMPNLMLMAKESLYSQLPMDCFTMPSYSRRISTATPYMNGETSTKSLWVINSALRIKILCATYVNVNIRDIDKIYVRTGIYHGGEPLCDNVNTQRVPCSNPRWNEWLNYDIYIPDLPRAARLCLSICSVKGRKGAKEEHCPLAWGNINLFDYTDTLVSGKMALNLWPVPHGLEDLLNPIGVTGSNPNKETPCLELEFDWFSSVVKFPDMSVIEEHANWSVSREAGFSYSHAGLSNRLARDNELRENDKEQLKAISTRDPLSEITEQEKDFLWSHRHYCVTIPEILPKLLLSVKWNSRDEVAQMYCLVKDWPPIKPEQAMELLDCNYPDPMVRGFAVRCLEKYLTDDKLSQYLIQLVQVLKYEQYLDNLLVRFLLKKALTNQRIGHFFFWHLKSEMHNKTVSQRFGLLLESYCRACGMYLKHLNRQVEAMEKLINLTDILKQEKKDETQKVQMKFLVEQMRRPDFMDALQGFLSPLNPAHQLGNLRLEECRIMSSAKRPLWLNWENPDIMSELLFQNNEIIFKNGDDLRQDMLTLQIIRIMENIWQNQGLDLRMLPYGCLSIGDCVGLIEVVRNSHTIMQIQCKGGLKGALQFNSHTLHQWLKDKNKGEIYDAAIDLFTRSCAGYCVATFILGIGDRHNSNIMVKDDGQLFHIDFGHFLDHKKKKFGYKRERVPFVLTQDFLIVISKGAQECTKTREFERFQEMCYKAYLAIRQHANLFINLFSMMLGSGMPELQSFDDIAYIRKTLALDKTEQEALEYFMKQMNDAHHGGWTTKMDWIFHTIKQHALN

Chain of p110γ (P48736 whole entry, species assumed): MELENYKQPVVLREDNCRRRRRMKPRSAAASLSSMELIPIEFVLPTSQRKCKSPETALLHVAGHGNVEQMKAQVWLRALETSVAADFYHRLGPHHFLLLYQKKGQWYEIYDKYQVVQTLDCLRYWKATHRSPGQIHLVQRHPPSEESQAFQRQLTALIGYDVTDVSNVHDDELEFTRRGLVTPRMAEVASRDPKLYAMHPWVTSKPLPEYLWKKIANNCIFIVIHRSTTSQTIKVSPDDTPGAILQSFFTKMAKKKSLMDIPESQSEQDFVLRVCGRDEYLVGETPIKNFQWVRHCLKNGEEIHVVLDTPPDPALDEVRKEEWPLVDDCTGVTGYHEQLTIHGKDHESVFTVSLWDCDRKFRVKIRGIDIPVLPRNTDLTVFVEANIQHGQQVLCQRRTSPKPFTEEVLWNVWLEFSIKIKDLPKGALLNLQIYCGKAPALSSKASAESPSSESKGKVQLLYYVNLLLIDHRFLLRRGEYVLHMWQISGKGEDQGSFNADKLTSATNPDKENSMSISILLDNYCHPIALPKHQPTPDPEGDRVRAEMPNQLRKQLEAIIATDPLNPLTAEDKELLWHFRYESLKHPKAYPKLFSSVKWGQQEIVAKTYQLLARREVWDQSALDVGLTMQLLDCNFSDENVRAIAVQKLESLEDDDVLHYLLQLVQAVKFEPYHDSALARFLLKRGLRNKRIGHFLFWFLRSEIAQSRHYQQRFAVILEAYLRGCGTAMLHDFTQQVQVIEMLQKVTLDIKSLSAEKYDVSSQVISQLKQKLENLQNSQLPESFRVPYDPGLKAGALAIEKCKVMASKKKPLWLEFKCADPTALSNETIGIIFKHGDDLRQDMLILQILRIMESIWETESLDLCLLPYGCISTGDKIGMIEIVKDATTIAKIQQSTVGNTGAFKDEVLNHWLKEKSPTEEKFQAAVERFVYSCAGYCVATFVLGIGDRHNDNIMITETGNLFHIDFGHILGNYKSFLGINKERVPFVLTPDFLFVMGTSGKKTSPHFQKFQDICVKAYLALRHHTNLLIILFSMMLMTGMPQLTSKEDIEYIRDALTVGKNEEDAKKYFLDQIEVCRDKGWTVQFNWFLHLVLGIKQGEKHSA
Chain of p110δ (O00329 whole entry, species assumed): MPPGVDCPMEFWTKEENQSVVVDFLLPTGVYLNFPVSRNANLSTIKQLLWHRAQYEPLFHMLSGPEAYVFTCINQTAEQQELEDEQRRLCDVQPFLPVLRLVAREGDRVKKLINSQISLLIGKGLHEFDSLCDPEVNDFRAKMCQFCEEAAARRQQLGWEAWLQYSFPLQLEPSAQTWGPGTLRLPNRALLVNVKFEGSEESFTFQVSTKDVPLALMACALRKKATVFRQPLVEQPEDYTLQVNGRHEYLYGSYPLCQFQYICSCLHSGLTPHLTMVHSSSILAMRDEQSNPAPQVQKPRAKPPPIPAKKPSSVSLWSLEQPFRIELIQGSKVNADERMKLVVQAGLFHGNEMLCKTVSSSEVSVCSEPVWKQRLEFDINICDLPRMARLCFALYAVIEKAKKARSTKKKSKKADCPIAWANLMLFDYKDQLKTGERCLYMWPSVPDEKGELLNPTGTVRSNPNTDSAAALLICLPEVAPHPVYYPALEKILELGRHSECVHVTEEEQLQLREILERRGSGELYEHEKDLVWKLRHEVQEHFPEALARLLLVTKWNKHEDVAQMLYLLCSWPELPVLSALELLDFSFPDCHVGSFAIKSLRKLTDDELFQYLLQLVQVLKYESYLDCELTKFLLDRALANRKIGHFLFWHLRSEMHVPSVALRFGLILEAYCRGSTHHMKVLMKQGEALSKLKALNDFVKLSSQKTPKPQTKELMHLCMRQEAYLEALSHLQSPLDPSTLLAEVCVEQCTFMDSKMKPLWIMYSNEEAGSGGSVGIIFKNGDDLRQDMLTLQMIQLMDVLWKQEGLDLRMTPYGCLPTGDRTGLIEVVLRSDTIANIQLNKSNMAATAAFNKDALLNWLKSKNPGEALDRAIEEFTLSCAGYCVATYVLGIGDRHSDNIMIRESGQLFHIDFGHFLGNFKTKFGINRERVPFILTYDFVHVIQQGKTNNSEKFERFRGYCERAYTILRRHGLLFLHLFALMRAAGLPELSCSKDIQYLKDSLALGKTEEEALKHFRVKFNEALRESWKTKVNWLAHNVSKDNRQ
Chain of p110δ (P27986 whole entry partner, species assumed): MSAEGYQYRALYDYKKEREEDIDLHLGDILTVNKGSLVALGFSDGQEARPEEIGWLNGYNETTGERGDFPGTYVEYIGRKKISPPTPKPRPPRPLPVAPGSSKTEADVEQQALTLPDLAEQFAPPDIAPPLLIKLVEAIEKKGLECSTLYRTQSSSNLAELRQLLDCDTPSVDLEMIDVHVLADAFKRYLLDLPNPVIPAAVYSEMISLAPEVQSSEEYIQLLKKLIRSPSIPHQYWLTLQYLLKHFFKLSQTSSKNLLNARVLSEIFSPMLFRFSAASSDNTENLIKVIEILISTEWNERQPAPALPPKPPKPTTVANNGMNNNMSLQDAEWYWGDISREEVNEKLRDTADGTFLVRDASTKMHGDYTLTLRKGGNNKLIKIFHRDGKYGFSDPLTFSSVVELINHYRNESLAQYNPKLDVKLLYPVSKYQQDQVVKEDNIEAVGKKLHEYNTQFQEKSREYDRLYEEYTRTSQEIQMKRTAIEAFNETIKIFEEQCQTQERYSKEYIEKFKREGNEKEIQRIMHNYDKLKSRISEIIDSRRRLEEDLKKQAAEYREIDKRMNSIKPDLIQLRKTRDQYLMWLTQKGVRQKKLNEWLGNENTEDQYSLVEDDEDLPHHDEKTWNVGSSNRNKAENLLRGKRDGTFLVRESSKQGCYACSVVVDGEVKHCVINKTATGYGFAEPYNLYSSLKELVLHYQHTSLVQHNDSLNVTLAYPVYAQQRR

As for `CS(=O)(=O)N1CCN(Cc2cc3nc(-c4cccc5[nH]ncc45)nc(N4CCOCC4)c3s2)CC1` [GDC-0941], the “percentage of TCM phenotype (CD62LhiCD44hi)” value in series [1] (GDC at the highest concentration, non-treated cells 96% TEM) is recorded as 37%. For the same molecule, the “percentage of TEM” value in series [1] (GDC treatment, after the third stimulation, non-treated 64%) worked out at 93%. Besides, the “percentage of TCM” value in series [1] (GDC treatment, after the third stimulation, non-treated less than 0.01) is 3.5%. In series [1] (listed as GDC), the “phenotype of CD8 T cells (TCM vs TEM) compared to non-treated cells” value is listed as “high percentage of the TCM phenotype; also recorded: high percentage of TCM cells” and the CD62L expression level entry was “maintained high expression levels of CD62L”. Besides, in series [1] (after the second and third stimulations), the “phenotype of CD8 T cells (TEM, terminally differentiated) compared to non-treated or other inhibitors” value is on record as “higher percentage of TEM”. Further, the “percentage of terminally differentiated T-cells (CD62LloCD44lo)” value in series [1] (after the third stimulation, highest GDC concentration, non-treated 36%) is 4%. In series [1], the CD62L expression level entry is on record as “maintains a high level of CD62L expression”. For the same molecule, in series [2] (highest dose tested (279 nM)), the “toxicity to CD8 T cells” value was “toxic”. The “expansion of CD8 T cells” value in series [2] (with further stimulations (days 7 and 14), vs non-treated cells) is on record as “expand at a significantly high rate”. Besides, the “ability of CD8 T cells to produce IFNγ and TNF” value in series [3] (GDC-0941, A66 (288 nM), TGX-221 (45 nM), CAL-101 (202.5 nM), re-stimulated days 7 and 14, supernatant after 24 hours) is “not affected”. In addition, in series [3] (after re-stimulation (stimulation 3), normalized to GP100, GDC 99 nM, CAL-101 202.5 nM, listed as GDC), the IL-2 secretion entry is listed as “significantly higher levels of IL-2; also recorded: maintained a significantly high level of IL-2 secretion”.

On to `Cc1cc(C(C)Nc2ccccc2)c2nc(N3CCOCC3)cc(=O)n2c1` (centres unmarked) [TGX-221], for which the values for the IC50 on p110γ, on p110δ and on p110α were greater than 10 µM, 0.1 µM and 5 µM, respectively. Also, the “phenotype of CD8 T cells (TCM vs TEM) compared to non-treated cells” value in series [1] was “no differences in the phenotype”.

Turning to `CC[C@H](Nc1ncnc2[nH]cnc12)c1nc2cccc(F)c2c(=O)n1-c1ccccc1` [CAL-101], in series [1] (D3, stim1, representative example, non-treated 4%), the “percentage of TCM” value was found to be 32%. For the same molecule, the “percentage of terminally differentiated T-cells” value in series [1] (D7, Stim 3, representative example, non-treated 36%) is listed as 5%. In series [1] (D7, Stim3, representative example, non-treated 64%), the “percentage of TEM cells (CD62LloCD44hi)” value turned out to be 95%.

Take `Cc1nc(NC(=O)N2CCC[C@H]2C(N)=O)sc1-c1csc(C(C)(C)C)n1` [A66]: the “phenotype of CD8 T cells (TCM vs TEM) compared to non-treated cells” value in series [1] is given as “no differences in the phenotype”.
